According to patent US12319672B2, “Alpha-D-galactopyranoside derivatives” (Idorsia Pharmaceuticals Ltd, priority 2019, dated 2025):

Columns and labels:
human Gal-1 (hGal-1) = assay: Competitive binding assay: binding of biotinylated hGal-1 to microplate-adsorbed asialofetuin (ASF); conditions: Activities on hGal-1; mean values of several measurements
In short: (§1)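 Compounds diluted in DMSO competed with biotinylated hGal-3 or hGal-1 (300-1000 ng/mL) for binding to plate-adsorbed asialofetuin for 3 h at 4° C. Bound galectin was detected with streptavidin-peroxidase (80 ng/mL, 1 h, 4° C) and ABTS substrate; IC50 reported as mean of several measurements.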

human Gal-3 (hGal-3) = human Gal-3 (hGal-3) (Homo sapiens (Human), UniProt P17931); assay: Competitive binding assay: binding of biotinylated hGal-3 to microplate-adsorbed asialofetuin (ASF); conditions: Activity on hGal-3; mean values of several measurements
In short: as §1

Chain of human Gal-1 (hGal-1) (P09382 2-135 limits assumed): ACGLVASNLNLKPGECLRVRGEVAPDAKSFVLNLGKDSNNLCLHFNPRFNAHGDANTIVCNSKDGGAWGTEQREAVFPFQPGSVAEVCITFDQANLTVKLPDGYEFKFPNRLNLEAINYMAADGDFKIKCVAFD
Chain of human Gal-3 (hGal-3) (P17931 whole entry): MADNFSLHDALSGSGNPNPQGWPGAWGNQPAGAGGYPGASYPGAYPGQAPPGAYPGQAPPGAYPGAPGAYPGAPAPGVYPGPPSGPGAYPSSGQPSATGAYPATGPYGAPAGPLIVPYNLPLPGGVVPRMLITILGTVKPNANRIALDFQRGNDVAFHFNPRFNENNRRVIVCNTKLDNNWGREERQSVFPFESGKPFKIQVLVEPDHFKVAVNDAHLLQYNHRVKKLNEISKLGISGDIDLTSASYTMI

| IC50 (human Gal-1 (hGal-1)) [nM] | IC50 (human Gal-3 (hGal-3)) [nM] | Structure (SMILES) |
| --- | --- | --- |
| 4110 | 990 | CO[C@@H]1[C@@H](n2cc(-c3cc(F)c(F)c(F)c3)nn2)[C@@H](O)[C@@H](CO)O[C@@H]1C[C@H]1CC([C@@H]2CCN(C)C(=O)C2)=NO1 [Ex 1.89] |
| 1780 | 260 | CO[C@@H]1[C@@H](n2cc(-c3cc(F)c(F)c(F)c3)nn2)[C@@H](O)[C@@H](CO)O[C@@H]1Cc1cc(C2CCN(C)C(=O)C2)no1 (some centres unmarked) [Ex 1.90] |
| 16000 | 550 | CO[C@@H]1[C@@H](n2cc(-c3cc(F)c(F)c(F)c3)nn2)[C@@H](O)[C@@H](CO)O[C@@H]1C[C@H]1CC([C@H]2CNC(=O)C2)=NO1 [Ex 1.93] |
| 3250 | 31 | Cc1ccc(-c2cn([C@H]3[C@@H](O)[C@@H](CO)O[C@H](CC4CC(C5CCN(C(=O)OC(C)(C)C)CC5)=NO4)[C@@H]3O)nn2)c(F)c1F (some centres unmarked) [Ex 1.97] |
| 1840 | 1560 | CC(C)(C)OC(=O)N1CCC(C2=NOC(C[C@H]3O[C@H](CO)[C@H](O)[C@H](n4cc(-c5ccc6ncsc6c5)nn4)[C@H]3O)C2)CC1 (some centres unmarked) [Ex 1.98] |
| 2340 | 1680 | CC(C)(C)OC(=O)N1CCC(C2=NOC(C[C@H]3O[C@H](CO)[C@H](O)[C@H](n4cc(-c5cc(Cl)ccc5Cl)nn4)[C@H]3O)C2)CC1 (some centres unmarked) [Ex 1.105] |
| 1530 | 490 | COc1cc(F)c(F)cc1-c1cn([C@H]2[C@@H](O)[C@@H](CO)O[C@H](CC3CC(C4CCN(C(=O)OC(C)(C)C)CC4)=NO3)[C@@H]2O)nn1 (some centres unmarked) [Ex 1.106] |
| 210 | 1600 | CC(C)(C)OC(=O)N1CCC(C2=NOC(C[C@H]3O[C@H](CO)[C@H](O)[C@H](n4cc(-c5nc6ccccc6s5)nn4)[C@H]3O)C2)CC1 (some centres unmarked) [Ex 1.109] |
| 2240 | 250 | COc1cc(-c2cn([C@H]3[C@@H](O)[C@@H](CO)O[C@H](CC4CC(C5CCN(C(=O)OC(C)(C)C)CC5)=NO4)[C@@H]3O)nn2)ccc1Cl (some centres unmarked) [Ex 1.110] |
| 770 | 1000 | Cc1c(F)cccc1-c1cn([C@H]2[C@@H](O)[C@@H](CO)O[C@H](CC3CC(C4CCN(C(=O)OC(C)(C)C)CC4)=NO3)[C@@H]2O)nn1 (some centres unmarked) [Ex 1.112] |
| 940 | 440 | CO[C@@H]1[C@@H](n2cc(-c3cccc(F)c3)nn2)[C@@H](O)[C@@H](CO)O[C@@H]1CC1CC(C2CCN(C(=O)OC(C)(C)C)CC2)=NO1 (some centres unmarked) [Ex 1.115] |
| 1140 | 330 | CO[C@@H]1[C@@H](n2cc(-c3ccc(Br)c(F)c3)nn2)[C@@H](O)[C@@H](CO)O[C@@H]1CC1CC(C2CCN(C(=O)OC(C)(C)C)CC2)=NO1 (some centres unmarked) [Ex 1.117] |
| 10600 | 290 | CO[C@@H]1[C@@H](n2cc(-c3cc(F)c(F)c(F)c3)nn2)[C@@H](O)[C@@H](CO)O[C@@H]1Cc1cc(C2CCCCC2)no1 [Ex 1.120] |
| 1090 | 82 | CO[C@@H]1[C@@H](n2cc(-c3ccc(Cl)c(F)c3)nn2)[C@@H](O)[C@@H](CO)O[C@@H]1Cc1cc(C2CCN(C(=O)OC(C)(C)C)CC2)on1 [Ex 1.121] |

The next lines start with the molecule.

| Structure (SMILES) | IC50 (human Gal-1 (hGal-1)) [nM] | IC50 (human Gal-3 (hGal-3)) [nM] |
| --- | --- | --- |
| CO[C@@H]1[C@@H](n2cc(-c3cc(F)c(F)c(F)c3)nn2)[C@@H](O)[C@@H](CO)O[C@@H]1C[C@H]1CC([C@@H]2CCNC(=O)C2)=NO1 [Ex 1.91] | 11800 | 480 |
| CO[C@@H]1[C@@H](n2cc(-c3cc(F)c(F)c(F)c3)nn2)[C@@H](O)[C@@H](CO)O[C@@H]1Cc1cc(C2CCNC(=O)C2)no1 (some centres unmarked) [Ex 1.92] | 4910 | 260 |
| CO[C@@H]1[C@@H](n2cc(-c3cc(F)c(F)c(F)c3)nn2)[C@@H](O)[C@@H](CO)O[C@@H]1Cc1cc(C2CNC(=O)C2)no1 (some centres unmarked) [Ex 1.94] | 4760 | 140 |
| CC(C)(C)OC(=O)N1CCC(C2=NOC(C[C@H]3O[C@H](CO)[C@H](O)[C@H](n4cc(-c5cc(F)c(Cl)cc5F)nn4)[C@H]3O)C2)CC1 (some centres unmarked) [Ex 1.95] | 1210 | 190 |
| COc1ccc(F)cc1-c1cn([C@H]2[C@@H](O)[C@@H](CO)O[C@H](CC3CC(C4CCN(C(=O)OC(C)(C)C)CC4)=NO3)[C@@H]2O)nn1 (some centres unmarked) [Ex 1.96] | 8650 | 1740 |
| Cc1cc(-c2cn([C@H]3[C@@H](O)[C@@H](CO)O[C@H](CC4CC(C5CCN(C(=O)OC(C)(C)C)CC5)=NO4)[C@@H]3O)nn2)ccc1F (some centres unmarked) [Ex 1.99] | 471 | 400 |
| CC(C)(C)OC(=O)N1CCC(C2=NOC(C[C@H]3O[C@H](CO)[C@H](O)[C@H](n4cc(-c5ccc(C#N)c(F)c5)nn4)[C@H]3O)C2)CC1 (some centres unmarked) [Ex 1.100] | 4900 | 650 |
| CC(C)(C)OC(=O)N1CCC(C2=NOC(C[C@H]3O[C@H](CO)[C@H](O)[C@H](n4cc(-c5cc(F)c(Cl)c(F)c5)nn4)[C@H]3O)C2)CC1 (some centres unmarked) [Ex 1.101] | 4100 | 180 |
| CC(C)(C)OC(=O)N1CCC(C2=NOC(C[C@H]3O[C@H](CO)[C@H](O)[C@H](n4cc(-c5ccc(Cl)c(F)c5F)nn4)[C@H]3O)C2)CC1 (some centres unmarked) [Ex 1.102] | 2370 | 82 |
| CC(C)(C)OC(=O)N1CCC(C2=NOC(C[C@H]3O[C@H](CO)[C@H](O)[C@H](n4cc(-c5ccc(C(F)(F)F)c(F)c5)nn4)[C@H]3O)C2)CC1 (some centres unmarked) [Ex 1.103] | 9820 | 450 |
| CC(C)(C)OC(=O)N1CCC(C2=NOC(C[C@H]3O[C@H](CO)[C@H](O)[C@H](n4cc(-c5ccc(F)cn5)nn4)[C@H]3O)C2)CC1 (some centres unmarked) [Ex 1.104] | 450 | 1840 |
| CC(C)(C)OC(=O)N1CCC(C2=NOC(C[C@H]3O[C@H](CO)[C@H](O)[C@H](n4cc(-c5ccc(Cl)c(Cl)c5)nn4)[C@H]3O)C2)CC1 (some centres unmarked) [Ex 1.107] | 400 | 110 |
| COc1cc(-c2cn([C@H]3[C@@H](O)[C@@H](CO)O[C@H](CC4CC(C5CCN(C(=O)OC(C)(C)C)CC5)=NO4)[C@@H]3O)nn2)cc(F)c1F (some centres unmarked) [Ex 1.108] | 1690 | 180 |
| COc1cc(OC)c(-c2cn([C@H]3[C@@H](O)[C@@H](CO)O[C@H](CC4CC(C5CCN(C(=O)OC(C)(C)C)CC5)=NO4)[C@@H]3O)nn2)cc1F (some centres unmarked) [Ex 1.111] | 11500 | 1660 |
| COc1ccc(-c2cn([C@H]3[C@@H](O)[C@@H](CO)O[C@H](CC4CC(C5CCN(C(=O)OC(C)(C)C)CC5)=NO4)[C@@H]3O)nn2)cc1 (some centres unmarked) [Ex 1.113] | 640 | 1060 |
| CO[C@@H]1[C@@H](n2cc(-c3cc(F)c(F)c(F)c3)nn2)[C@@H](O)[C@@H](CO)O[C@@H]1Cc1cc(C2CCC(=O)NC2)no1 (some centres unmarked) [Ex 1.114] | 1360 | 75 |
| CO[C@@H]1[C@@H](n2cc(-c3ccc(Cl)c(F)c3)nn2)[C@@H](O)[C@@H](CO)O[C@@H]1CC1CC(C2CCN(C(=O)OC(C)(C)C)CC2)=NO1 (some centres unmarked) [Ex 1.116] | 1750 | 170 |
| CO[C@@H]1[C@@H](n2cc(-c3cc(F)cc(F)c3)nn2)[C@@H](O)[C@@H](CO)O[C@@H]1CC1CC(C2CCN(C(=O)OC(C)(C)C)CC2)=NO1 (some centres unmarked) [Ex 1.118] | 1470 | 330 |
| CO[C@@H]1[C@@H](n2cc(-c3cc(F)c(F)c(F)c3)nn2)[C@@H](O)[C@@H](CO)O[C@@H]1Cc1cc(-c2ccn(C)c(=O)c2)on1 [Ex 1.119] | 4170 | 260 |
| CO[C@@H]1[C@@H](n2cc(-c3cc(F)cc(F)c3)nn2)[C@@H](O)[C@@H](CO)O[C@@H]1Cc1cc(C2CCN(C(=O)OC(C)(C)C)CC2)on1 [Ex 1.122] | 720 | 140 |
